Assay results published in patent US12227491B2, “EGFR inhibitors” (INVENTISBIO CO., LTD., priority 2018, dated 2025).
Like-named read-outs stand apart in the source and are kept apart here. Blank lines part the entries; values can stand above or below the compound they belong to.

What was measured:
wild-type EGFR (WT-EGFR) = wild-type EGFR (WT-EGFR) (Homo sapiens, UniProt P00533); conditions: major metabolite of AZD9291; cited from earlier work
[1] = Hygroscopicity of crystalline Form I on storage at 25° C., 80% relative humidity; type: physicochemical
[2] = Solid-state stability of Form I under thermal treatment and mechanical grinding (XRPD); type: physicochemical
Protocol: POWDER X-RAY DIFFRACTION (XRPD): The solid samples from screening were examined using X-ray diffractometer (Bruker D8 advance). The system is equipped with LynxEye detector. The samples were scanned from 3 to 40° 2θ, at a step size 0.02° 2θ. The tube voltage and current were 40 KV and 40 mA, respectively. The sample was transferred from sample container onto zero background XRD-holder and gently ground.
DSC ANALYSIS: DSC analysis was conducted on a TA Instruments Q200. The calibration standard was indium. A sample in weight was placed into a TA DSC pan, and weight accurately recorded. Crimped pans were used for analysis and the samples were heated under nitrogen (50 mi/min) at a rate of 10° C./min, up to a final temperature.

NSCLC patients = conditions: cited from earlier work

Chain of wild-type EGFR (WT-EGFR) (P00533 25-1210): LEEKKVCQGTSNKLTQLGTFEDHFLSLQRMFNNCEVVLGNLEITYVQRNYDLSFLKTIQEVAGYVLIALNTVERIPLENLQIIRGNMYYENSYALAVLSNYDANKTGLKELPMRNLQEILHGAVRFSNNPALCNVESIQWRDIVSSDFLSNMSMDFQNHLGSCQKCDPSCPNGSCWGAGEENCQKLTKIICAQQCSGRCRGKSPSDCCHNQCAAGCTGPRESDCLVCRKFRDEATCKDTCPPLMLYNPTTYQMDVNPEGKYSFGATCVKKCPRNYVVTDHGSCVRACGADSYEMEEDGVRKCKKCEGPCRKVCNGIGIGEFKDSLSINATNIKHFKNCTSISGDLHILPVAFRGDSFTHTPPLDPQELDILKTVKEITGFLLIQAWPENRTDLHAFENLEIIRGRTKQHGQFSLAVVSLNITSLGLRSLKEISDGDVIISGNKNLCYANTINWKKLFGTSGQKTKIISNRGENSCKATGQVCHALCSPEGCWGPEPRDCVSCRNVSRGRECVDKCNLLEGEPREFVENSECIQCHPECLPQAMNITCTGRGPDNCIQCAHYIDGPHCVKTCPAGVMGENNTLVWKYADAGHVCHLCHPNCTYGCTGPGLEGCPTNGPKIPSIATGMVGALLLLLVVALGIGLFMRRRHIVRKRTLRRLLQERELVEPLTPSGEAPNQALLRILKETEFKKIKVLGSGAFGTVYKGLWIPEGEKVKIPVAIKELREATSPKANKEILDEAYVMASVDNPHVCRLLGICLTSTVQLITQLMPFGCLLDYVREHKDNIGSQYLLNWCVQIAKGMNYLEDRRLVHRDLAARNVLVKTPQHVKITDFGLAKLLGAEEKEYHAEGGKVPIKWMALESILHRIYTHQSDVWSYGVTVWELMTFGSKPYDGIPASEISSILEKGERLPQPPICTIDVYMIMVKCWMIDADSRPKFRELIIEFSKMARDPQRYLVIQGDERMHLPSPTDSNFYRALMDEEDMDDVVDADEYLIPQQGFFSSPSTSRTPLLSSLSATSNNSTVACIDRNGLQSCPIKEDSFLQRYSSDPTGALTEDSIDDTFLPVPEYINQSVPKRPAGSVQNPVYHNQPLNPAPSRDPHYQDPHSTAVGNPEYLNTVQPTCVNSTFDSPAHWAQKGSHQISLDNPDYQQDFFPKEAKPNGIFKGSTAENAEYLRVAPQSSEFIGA

Compound: C=CC(=O)Nc1cc(Nc2nccc(-c3c[nH]c4ccccc34)n2)c(OC)cc1N(C)CCN(C)C [AZ5104]
inhibitory effect on wild-type EGFR (wild-type EGFR (WT-EGFR)): strong inhibitory effect

increase in weight upon storing ([1]; 25° C., relative humidity of 80%): only negligible increase in weight
hygroscopicity ([1]; crystalline Form I): non-hygroscopic
crystallinity after mechanical grinding ([2]; Form I grinded mechanically): some loss of crystallinity
solid form after thermal treatment ([2]; crystals heated in DSC cells to 220° C., then immediately placed into ice (quench), XRPD): converted into an amorphous form
Compound: C=CC(=O)Nc1cc(Nc2nccc(-c3cn(CC(F)(F)F)c4ccccc34)n2)c(OC)cc1N(C)CCN(C)C [Compound 5, N-(2-((2-(dimethylamino)ethyl)(methyl)amino)-4-methoxy-5-((4-(1-(2,2,2-trifluoroethyl)-1H-indol-3-yl)pyrimidin-2-yl)amino)phenyl)acrylamide monomesylate]

Compound: C#Cc1cccc(Nc2ncnc3cc(OCCOC)c(OCCOC)cc23)c1 [erlotinib]
share of patients in whom the drug has effect (NSCLC patients; Asian NSCLC patients): about 35%
share of patients in whom the drug has effect (NSCLC patients; Caucasian patients with NSCLC): about 10%

Compound: COc1cc2ncnc(Nc3ccc(F)c(Cl)c3)c2cc1OCCCN1CCOCC1 [gefitinib]
share of patients in whom the drug has effect (NSCLC patients; Asian NSCLC patients): about 35%
share of patients in whom the drug has effect (NSCLC patients; Caucasian patients with NSCLC): about 10%
